According to PubChem BioAssay (NCI):
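In this assay, cells in 96-well plates receive the compound at five concentrations for 48 hours. Endpoints are linearly interpolated between the surrounding concentrations. At the GI50, growth is halved. TGI: concentration producing complete growth inhibition.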

Assays:
Assay in all cases: inhibition of tumour cell growth, NCI panel, 48 h
SK-MEL-5 melanoma = system: SK-MEL-5 melanoma
TK-10 renal = system: TK-10 renal
CCRF-CEM leukemia = system: CCRF-CEM leukemia
SNB-75 CNS = system: SNB-75 CNS
SN12C renal = system: SN12C renal
LOX IMVI melanoma = system: LOX IMVI melanoma
M14 melanoma = system: M14 melanoma
SK-MEL-2 melanoma = system: SK-MEL-2 melanoma
HCC-2998 colon = system: HCC-2998 colon
MDA-MB-231 breast = system: MDA-MB-231 breast

| SMILES | TGI (SK-MEL-5 melanoma) | TGI (TK-10 renal) | TGI (CCRF-CEM leukemia) | TGI (SNB-75 CNS) | TGI (SN12C renal) | TGI (LOX IMVI melanoma) | TGI (M14 melanoma) | TGI (SK-MEL-2 melanoma) | TGI (HCC-2998 colon) | GI50 (SK-MEL-5 melanoma) | GI50 (TK-10 renal) | GI50 (SK-MEL-2 melanoma) | GI50 (HCC-2998 colon) | GI50 (CCRF-CEM leukemia) | GI50 (SNB-75 CNS) | GI50 (SN12C renal) | GI50 (MDA-MB-231 breast) | TGI (MDA-MB-231 breast) | GI50 (LOX IMVI melanoma) | GI50 (M14 melanoma) |
| --- | --- | --- | --- | --- | --- | --- | --- | --- | --- | --- | --- | --- | --- | --- | --- | --- | --- | --- | --- | --- |
| COc1cc2c(cc1OC)C1C=NC(C(=O)O)(C2)c2ccccc21 (stereo not drawn) | > 100 µM | > 100 µM | > 100 µM | > 100 µM | > 100 µM | > 100 µM | > 100 µM | – | – | – | – | – | – | – | – | – | – | – | – | – |
| O=S(=O)(O)C(O)/C=C/c1ccccc1 (stereo not drawn) | > 100 µM | > 100 µM | > 100 µM | > 100 µM | > 100 µM | > 100 µM | > 100 µM | > 100 µM | > 100 µM | – | – | – | – | – | – | – | – | – | – | – |
| CN(C)CCNC(=O)c1cccc2nc3c(Cl)cccc3nc12 | > 42.3 µM | > 54.8 µM | – | 32.2 µM | 49.5 µM | 10.7 µM | > 36.8 µM | 18.6 µM | 43.1 µM | – | – | – | – | – | – | – | – | – | – | – |
| Cc1cc(C)nc(NS(=O)(=O)c2ccc(NC(=O)c3cccc4c(=O)c5ccccc5[nH]c34)cc2)n1 | 24 µM | 51 µM | > 100 µM | 50 µM | 32.8 µM | 31.8 µM | 40.7 µM | – | 31.7 µM | – | – | – | – | – | – | – | – | – | – | – |
| C#CC(C)(C)Oc1cc(O)c2c(=O)c3ccccc3n(C)c2c1 | > 100 µM | > 100 µM | > 100 µM | > 100 µM | > 100 µM | 44.3 µM | > 100 µM | > 100 µM | > 100 µM | – | – | – | – | – | – | – | – | – | – | – |
| COc1ccc(CN2CCCC(C(=O)c3ccc(C(F)(F)F)cc3)C2)c(O)c1 (stereo not drawn) | 29.8 µM | 88.7 µM | > 100 µM | > 100 µM | 89.3 µM | 35.3 µM | – | 65.8 µM | 56.3 µM | 15.9 µM | 31.3 µM | 27.5 µM | 24 µM | 35.2 µM | 18.4 µM | 24.4 µM | 13.6 µM | 32 µM | 18.4 µM | – |
| COC(=O)[C@@H](C)C[C@H](Cc1ccccc1)NC(=O)c1nc([C@@H](C[C@H](C(C)C)N(C)C(=O)[C@@H](NC(=O)[C@H]2CCCN2C)C(C)C)OC(C)=O)sc1C | 0.0698 µM | > 25 µM | > 25 µM | > 25 µM | > 25 µM | > 25 µM | – | > 25 µM | > 25 µM | < 0.0025 µM | > 25 µM | < 0.0025 µM | < 0.0025 µM | < 0.0025 µM | < 0.0025 µM | < 0.0025 µM | 0.00613 µM | 4.64 µM | 0.00837 µM | – |
| COc1cc([C@@H]2c3cc4c(cc3[C@@H](NC(=O)c3cccc([N+](=O)[O-])c3)C3COC(=O)[C@@H]32)OCO4)cc(OC)c1O (stereo partly drawn) | 3.65 µM | 9.94 µM | > 100 µM | 9.55 µM | 1.49 µM | 9.41 µM | > 19.8 µM | 7.23 µM | 3.17 µM | – | – | – | – | – | – | – | – | – | – | – |
| O=C1Oc2cc3c(c4cccc1c24)OCN(c1ccc(Cl)cc1)C3 | > 100 µM | > 100 µM | 45.7 µM | > 100 µM | 29.1 µM | 17.7 µM | > 57.8 µM | – | > 100 µM | – | – | – | – | – | – | – | – | – | – | – |
| CCCNC(=O)OCc1c(COC(=O)NCCC)c(-c2ccc(Cl)c(Cl)c2)n2c1CCC2 | 19.5 µM | 18.9 µM | 7.95 µM | – | 19.4 µM | 15.8 µM | 24.4 µM | – | – | – | – | – | – | – | – | – | – | 21.9 µM | – | – |
| COC(=O)c1c(OC)cccc1C(=O)O | > 100 µM | > 100 µM | > 100 µM | > 100 µM | > 100 µM | – | > 100 µM | > 100 µM | > 100 µM | – | – | – | – | – | – | – | – | – | – | – |
| O=C(O)c1cc(S(=O)(=O)N=NC=C2c3ccccc3N(O)c3ccccc32)ccc1O | 32.3 µM | 50 µM | 86 µM | 7.77 µM | > 100 µM | 26 µM | 79.2 µM | 64.2 µM | 37.9 µM | – | – | – | – | – | – | – | – | – | – | – |
| S=C1NCCN1C1=Nc2ccccc2CO1 | 99.4 µM | > 100 µM | > 100 µM | > 100 µM | > 100 µM | > 100 µM | > 100 µM | – | > 100 µM | 41.7 µM | > 100 µM | – | > 100 µM | > 100 µM | 22.5 µM | > 100 µM | > 100 µM | > 100 µM | > 100 µM | > 100 µM |
| CCCCCCCCCCCCCCC1OC(=O)c2ccccc21 (stereo not drawn) | – | > 100 µM | > 100 µM | > 100 µM | 75.9 µM | > 100 µM | > 100 µM | – | – | – | – | – | – | – | – | – | – | – | – | – |
| Cc1nc2nnc(C)n2c2c1C(=O)Nc1ccccc1N2 | – | > 100 µM | > 100 µM | > 100 µM | > 100 µM | > 100 µM | > 100 µM | > 100 µM | > 100 µM | – | – | – | – | – | – | – | – | – | – | – |
| CC1CCC[P+](Cc2ccccc2)(c2ccccc2)CC1 (stereo not drawn) | 35.9 µM | > 100 µM | > 100 µM | > 100 µM | > 100 µM | > 100 µM | > 100 µM | 78.2 µM | > 100 µM | – | – | – | – | – | – | – | – | – | – | – |
| O=c1[nH]c(=O)n(C2CC(O)C(CO)O2)cc1C#Cc1c(F)c(F)c(F)c(F)c1F (stereo not drawn) | > 100 µM | – | > 100 µM | > 100 µM | > 100 µM | > 100 µM | > 100 µM | > 100 µM | > 100 µM | – | – | – | – | – | – | – | – | – | – | – |
| CC1=CCCC(OC(N)=O)C1 (stereo not drawn) | > 100 µM | > 100 µM | > 100 µM | > 100 µM | > 100 µM | > 100 µM | > 100 µM | > 100 µM | > 100 µM | – | – | – | – | – | – | – | – | – | – | – |
| CCC1CCC2CCCC(C)N12 (stereo not drawn) | – | > 100 µM | > 100 µM | > 100 µM | > 100 µM | – | > 100 µM | > 100 µM | > 100 µM | – | – | – | – | – | – | – | – | – | – | – |
| O=C1/C(=C/c2ccccc2)CN(C(=O)Oc2ccc(Cl)cc2)C/C1=C\c1ccccc1 | 4.14 µM | 14.9 µM | 6.39 µM | 12.6 µM | 3.88 µM | 2.51 µM | 3.48 µM | 16.5 µM | 2.99 µM | – | – | – | – | – | – | – | – | – | – | – |
| OCCNCO | > 100 µM | > 100 µM | > 100 µM | > 100 µM | > 100 µM | > 100 µM | > 100 µM | > 100 µM | – | – | – | – | – | – | – | – | – | – | – | – |
| NNC(=O)c1cnn(-c2ccnc3c(C(F)(F)F)cccc23)c1N | > 100 µM | > 100 µM | > 100 µM | > 100 µM | > 100 µM | > 100 µM | – | > 100 µM | > 100 µM | > 100 µM | > 100 µM | > 100 µM | > 100 µM | > 100 µM | 99.7 µM | > 100 µM | > 100 µM | > 100 µM | > 100 µM | – |
